Assay [1] relates to mouse-derived muscle cell line C2C12. Briefly: Muscle insulin signal (phosphorylated Akt/total Akt phosphorylation index) in C2C12 myotube cells exposed to palmitic acid (FFA). The format is cell-based. The following applies: for insulin signal that declined due to FFA: 500 μM. How it is done:
Muscle anabolic signal was monitored by insulin signal, and the action of γ-glutamyl peptide on the decline of insulin signal was evaluated. As the γ-glutamyl peptide, the actions of γ-L-glutamyl-L-valine (γEV), γ-L-glutamyl-L-cysteine (γEC), and γ-L-glutamyl-L-valylglycine (γEVG) were evaluated.
The evaluation was performed using an evaluation system in which exposure of the mouse-derived muscle cell line C2C12 to saturated fatty acid results in a decline in insulin signal, as described below.
Using mouse C3H skeletal muscle myoblast cell line (C2C12 cell) (DS Pharma Biomedical Co., Ltd.), the evaluation was performed.
Induction of differentiation into myotube cells (Myotubes) was performed using cells with myoblast passage number of 12 to 18. Myoblasts were seeded in a 12-well (diameter=3 cm) plate at 0.3×10^5 to 0.5×10^5 cells/well. After confirmation that the cell proliferation state reached 90% confluent, the medium was replaced with DMEM supplemented with 2 (w/v) % horse serum (HS) and 1 (w/v) % penicillin-streptomycin-glutamine (2 (w/v) % HS, 1 (w/v) % P/S, 1 (w/v) % Gln/DMEM), and differentiation into myotube cells (Myotubes) was induced. After confirmation of differentiation into myotube cells (Myotubes), a muscle insulin signal evaluation system was constructed, and the action of each of γEV, γEC, and γEVG was evaluated using the constructed evaluation system.
The myotube cells (Myotubes) were cultured overnight (17 hr to 24 hr) at 37° C. in a 0.5 mM palmitic acid (FFA)/0.5 (w/v) % albumin (BSA)/DMEM culture medium in the presence of 5 (v/v) % carbon dioxide.
After culturing overnight, the cells were preincubated for about 2 hr in DMEM (BSA/FFA free), stimulated by incubation (15 min to 20 min) with 100 nM insulin, and the myotube cells were collected (each n=1 to 2). From the collected cells, proteins were extracted with RIPA (Radio-Immunoprecipitation Assay) buffer (Cell Signaling Technologies Inc.), adjusted to a final protein concentration of 0.5 mg/mL, and used as samples.
The expression levels of phosphorylated Akt (pAkt) (Ser473) (#9271S; Cell Signaling Technologies Inc.), and total Akt (#9272S; Cell Signaling Technologies Inc.) in the above-mentioned sample were quantified by the Western blotting (WB) method. The expression level of each protein was quantified using Western blot-chemiluminescent imaging system (Fusion FX) (Vilber-Lourmat Inc.).
Each γ-glutamyl peptide was added simultaneously with FFA, and the muscle quality-improving effect was examined with the recovery of the muscle insulin signal as an index. The final concentration of γEV was adjusted to 100 μM or 300 μM, and the final concentrations of γEC and […] were adjusted to 500 μM. As a positive control, an antioxidative active substance N-acetylcysteine (NAC) 5 mM was used.
From the measurement results of the expression levels of phosphorylated Akt (Ser473) and total Akt, the ratio of phosphorylated Akt and total Akt with insulin stimulation to the ratio of phosphorylated Akt and total Akt without insulin stimulation [(pAkt/Total Akt) Insulin+]/[(pAkt/Total Akt) Insulin-] was determined and shown in FIGS. 1 and 2 as the phosphorylation index (stimulation index). In the Figures, the average values of the calculated phosphorylation indices are shown in bar graphs. The symbols (●, ▪, ▴, ▾, □, Δ, ∇) in the Figures indicate the calculated values of the phosphorylation index obtained for each sample.

Assay [2] concerns Sprague-Dawley (SD) male rats. Briefly: Muscle (tibialis anterior muscle) weight in rats fed a high-fat diet with exercise load. The following applies: 0.2 wt % in 30 wt % fat feed plus exercise, 6th week; compared with exercise only group; FIG. 3. Type of assay: in vivo, rat. How it is done: (§1) Furthermore, the exercise groups (exercise group and exercise+γEV group) were made to perform exercise once a week under the exercise load conditions shown below.
(§2) At the 5th week of feeding the high-fat diet, the exercise function (walking function) was evaluated as follows. At the 6th week of feeding the high-fat diet, an autopsy was performed, and the muscle (tibialis anterior muscle) weight was measured. As described below, the muscle insulin sensitivity was evaluated, the fatty acid composition in muscle diacylglycerol was analyzed, and the muscle function was evaluated.
The exercise was performed using the left leg of the rat by applying a local resistance exercise load. A rat under isoflurane anesthesia was placed in an ankle exercise device for small animals (Bioresearch Center K.K.), a skin stimulation electrode was attached to the tibialis anterior muscle, and contraction was caused by electrical stimulation. At the same time, the tibialis anterior muscle was pulled in the direction opposite to the contraction direction, and an extension load was applied. The exercise load setting conditions are shown below.
(i) contraction (electric) load condition: 4 mA to 5 mA, 100 Hz, 1100 msec
(ii) extension load condition: angle of left leg joint was extended from 90° to 135° at rate=100 deg/sec […]

Assay [3] relates to Sprague-Dawley (SD) male rats. Briefly: Walking function (stride of walking, length and width) in rats fed a high-fat diet. Conditions: 0.2 wt % in 30 wt % fat feed plus exercise, 5th week; widening of width and narrowing of length; FIG. 4. Type of assay: in vivo, rat. How it is done: as §1, §2
The walking function was evaluated by walking the rat without an anesthesia and observing the state of walking. India ink was applied to the plantar part of the both legs of the rat, and the rat was made to walk through a cylindrical tunnel with Japanese writing paper laid therein and the stride of walking (width and length) was measured based on the trace of the right leg and the left leg after walking, and the walking function was evaluated.
The respective measurement or evaluation or analysis results of the above-mentioned (2) to (4) are shown by mean±standard error in FIG. 3 to FIG. 7. […]

For assay [4], the system named is insulin receptor substrate-1 (IRS-1). Nature of the assay: Muscle insulin sensitivity (IRS-1 serine phosphorylation activity, Western blotting) in rats fed a high-fat diet. The format is in vivo, rat. The following applies: 0.2 wt % in 30 wt % fat feed plus exercise, 6th week; vs high fat group p<0.01; FIG. 5. How it is done:
as §1, §2
As an index of muscle insulin sensitivity, insulin receptor substrate-1 (IRS-1) serine phosphorylation activity was evaluated by a Western blotting (WB) method. […]
As the antibodies, anti-Phospho-IRS-1 (Ser307) antibody (Cell Signaling Technologies Inc.), and anti-total IRS-1 antibody (Cell Signaling Technologies Inc.) were used, the expression levels of Phospho-IRS-1 (Ser307) and total IRS-1 were quantified using Western blot-chemiluminescent imaging system (Fusion FX) (Vilber-Lourmat Inc.).
As an index of insulin sensitivity, the ratio of Phospho-IRS-1 (Ser307) expression level to total IRS-1 expression level [(Phospho-IRS-1 (Ser307))/(total IRS-1)] was determined. […]
On the technique in general: A western blot detects proteins with antibodies after separation by electrophoresis.

Assay [5] has as its system Sprague-Dawley (SD) male rats. Nature of the assay: Amount of diacylglycerol and fatty acid composition in muscle diacylglycerol in rats fed a high-fat diet. The following applies: 0.2 wt % in 30 wt % fat feed plus exercise, 6th week, vs high fat group p<0.01. Type of assay: in vivo, rat. How it is done: as §1, §2
The amount of diacylglycerol (DAG) in muscle, which is highly related to muscle insulin sensitivity, was analyzed, and the composition of fatty acid contained in DAG was analyzed.
The fat ingredient in the muscle collected during autopsy was extracted according to a chloroform/methanol method, and the DAG fraction was extracted using thin layer chromatography (TLC). […] DAG was quantified at 600 nm by a colorimetric method.
The DAG fraction after development was extracted by a chloroform/methanol method, and fatty acid in DAG was quantified. As fatty acids, 9 kinds of fatty acids (lauric acid, myristic acid, palmitoleic acid, palmitic acid, linolenic acid, linoleic acid, oleic acid, stearic acid, arachidonic acid) mainly contained in the living body were selected and analyzed using gas chromatography. […]

Assay [6] has as its system C57BL/6J mice. Briefly: Grip strength (muscle strength) of mice under motility limitation. Type of assay: in vivo, mouse. Conditions: 0.2 wt % in feed, narrow cage, 28 days; vs motility limitation+lard ingestion group; FIG. 8. The text has this: (§3) Using C57BL/6J mice, the effect of ingestion of γ-glutamyl peptide on the changes in muscle quality and muscle function induced by narrowing the area of the cage used for rearing to limit exercise was investigated.
C57BL/6J mice were grouped into 3 groups shown in Table 2 such that the body weight, grip strength, and lean body weight would be uniform, and one mouse was housed per cage and reared. As cages for rearing mice, a wide cage (width 220 mm×length 320 mm×height 165 mm) and a narrow cage (width 110 mm×length 160 mm×height 130 mm) were used. In addition, as an experimental diet, a diet containing 20 wt % casein and 7 wt % lard or a diet containing 20 wt % casein, 7 wt % lard, and 0.2 wt % γ-glutamyl valine (γEV) was supplied.
After rearing for 28 days under the above-mentioned conditions, the grip strength of each mouse was measured and the muscle strength was evaluated.
The grip strength of the mouse was measured using a grip strength meter for small animals (“Chatillon”, Columbus Instruments). […] The aforementioned grip strength was consecutively measured five times, and the average value was calculated and used as the grip strength value of each individual. […]

Assay [7] has as its system C57BL/6J mice. Nature of the assay: Amount of neutral fat in muscle and palmitic acid in neutral fat in muscle of mice under motility limitation. The format is in vivo, mouse. Conditions: 0.2 wt % in feed, narrow cage, 28 days, vs motility limitation+lard ingestion group.
From the text: as §3
C57BL/6J mice were grouped into 3 groups shown in Table 2 such that the body weight, grip strength, and lean body weight would be uniform, and one mouse was housed per cage and reared. As cages for rearing mice, a wide cage (width 220 mm×length 320 mm×height 165 mm) and a narrow cage (width 110 mm×length 160 mm×height 130 mm) were used. […]
After the completion of the above-mentioned grip strength measurement, muscles (gastrocnemius muscles) were collected from the mice in each group, and the amount of neutral fat in the muscle, which is one of the indicators of muscle quality, and the amount of palmitic acid in neutral fat in the muscle were measured.
Fat ingredient was extracted according to a chloroform/methanol method from the collected muscle, and the neutral fat content was measured by a colorimetric method at 600 nm, as well as the neutral fat was fractionated and collected by thin layer chromatography (TLC). […] The neutral fat fraction was extracted again by a chloroform/methanol method, and the composition of the fatty acid in the neutral fat was analyzed, and the amount of palmitic acid was measured. The composition of the fatty acid was analyzed by gas chromatography. […]

[8] abbreviates: added simultaneously with 0.5 mM FFA, FIG. 2.

*1 amine or outer side, *2 acyl side, *3 side chain or, on linkers, in order; H or OH if unused. Where a SMILES comes first, the peptide text is derived from it. γGlu = O=C(O)[C@H](CCC(=O)[*:2])N[*:1]

As to `N[C@@H](CCC(=O)N[C@@H](CS)C(=O)O)C(=O)O` [γEC, γ-L-glutamyl-L-cysteine], in assay [1] (setting [8]), the “insulin signal that declined due to FFA” value is “increase the insulin signal”.
On to `CC(C)[C@H](NC(=O)CC[C@H](N)C(=O)O)C(=O)O` [γEV, γ-L-glutamyl-L-valine], for which the “muscle insulin signal increasing action compared with NAC” value is given as “superior to that of NAC” in assay [1] (100 μM vs NAC 5 mM, FIG. 2) and “equal to or higher than that of NAC” in assay [1] (300 μM vs NAC 5 mM, FIG. 1). Moreover, the “decline in muscle insulin signal due to FFA (phosphorylation index)” value in assay [1] (300 μM, added simultaneously with 0.5 mM FFA, 100 nM insulin stimulation, FIG. 1) was “recovered”. For the same compound, in assay [2], the “muscle weight (tibialis anterior muscle, weight ratio to body weight)” value is on record as “increase in the muscle weight tended to be promoted”. Moreover, in assay [3], the “stride of walking (length and width) during walking” value is “suppressed to the same levels as in the normal group”. In addition, the “decline in muscle insulin sensitivity [(Phospho-IRS-1 (Ser307))/(total IRS-1)]” value in assay [4] is “significantly suppressed”. In addition, the “increase in the amount of DAG in skeletal muscle” value in assay [5] (FIG. 6) is given as “significantly suppressed”. Besides, the “amount of palmitic acid in muscle DAG” value in assay [5] (FIG. 7) was “significantly lower than in the high fat group”. Besides, in assay [6], the grip strength entry is “significantly (p<0.05) improved”. In addition, in assay [7] (FIG. 9), the “amount of neutral fat in the muscle (gastrocnemius muscle)” value is listed as “significantly (p<0.1) small”. Besides, in assay [7] (FIG. 10), the “amount of palmitic acid in the neutral fat in the muscle (gastrocnemius muscle)” value was “significantly (p<0.1) small”.
In the case of `CC(C)[C@H](NC(=O)CC[C@H](N)C(=O)O)C(=O)NCC(=O)O` [γEVG, γ-L-glutamyl-L-valylglycine] (γGlu-Val-Gly-OH), the “insulin signal that declined due to FFA” value in assay [1] (setting [8]) was “increase the insulin signal”.

The values above are taken from patent US20220249592A1, “MUSCLE QUALITY IMPROVEMENT AGENT” (AJINOMOTO CO., INC., priority 2019, published 2022).
